Data published in patent publication US5034391A, “Piperazinylalkyl-3(2H)-pyridazinones and the use thereof as agents lowering blood pressure” (CL Pharma Aktiengesellschaft, priority 1988, dated 1991).
Several values for one entry are separate records, joined by “and”; a condition that tells them apart may be missing. Equal values may be shown once.

target: T1, alpha1 adrenoceptors (Rattus norvegicus, UniProt P15823); assay: Affinity for alpha1 adrenoceptors: displacement of tritiated prazosin on rat cardiac membranes; type: binding; conditions: Ki from IC50 by Cheng and Prusoff, read-out: Inhibition constants at alpha-1-adrenoceptor (Ki)
T1 construct: from tissue; host or cells: rat cardiac membranes
T1 sequence (P15823 1-515): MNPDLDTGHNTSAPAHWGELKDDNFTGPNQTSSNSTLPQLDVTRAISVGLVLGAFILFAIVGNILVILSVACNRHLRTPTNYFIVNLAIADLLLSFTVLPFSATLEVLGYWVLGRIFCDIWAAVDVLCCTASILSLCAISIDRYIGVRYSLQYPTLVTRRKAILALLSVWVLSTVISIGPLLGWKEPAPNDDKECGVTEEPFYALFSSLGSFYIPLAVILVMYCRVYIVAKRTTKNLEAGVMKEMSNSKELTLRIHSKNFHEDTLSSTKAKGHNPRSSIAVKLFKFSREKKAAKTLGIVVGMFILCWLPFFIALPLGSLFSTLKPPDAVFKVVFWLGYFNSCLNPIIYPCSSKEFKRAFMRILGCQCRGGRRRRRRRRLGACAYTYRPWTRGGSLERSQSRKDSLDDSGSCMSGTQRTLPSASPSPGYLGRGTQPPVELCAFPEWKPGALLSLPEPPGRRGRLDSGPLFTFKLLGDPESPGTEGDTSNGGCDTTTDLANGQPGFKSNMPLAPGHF
Protocol: The affinity of compounds of the general formula I for alpha1 adrenoceptors was established using the method described by R. S. Williams, D. F. Dukes and […] in J. Cardiovasc. Pharmacol. 3, 522-531 (1981). In this method the competitive displacement of tritiated prazosin (2-(4-(2-furoyl)-1-piperazinyl)-4-amino-6,7-dimethoxy-quinazoline) on rat-cardiac membranes by the test substances is measured, and the IC50 (50% inhibition concentration) is determined as that concentration which brings about a 50% inhibition of the specific binding of tritiated prazosin to the alpha1 adrenoceptors in rat cardiac membranes.
The concentration-independent inhibitor constants K1 -alpha1 were determined from the IC50 values as stated by Y. Cheng and H. W.Prusoff in Biochem. Pharmacol. 22, 3099-3108 (1973).

Going from “2-Methyl-4-((2-(4-(2-fluorophenyl)piperazinyl-1)ethyl) amino)-3(2H)-pyridazinone” to `CCOc1cc(C)ccc1N1CCN(CCCNc2cnn(C)c(=O)c2)CC1` [1-Methyl-5-((3-(4-(2-ethoxy-4-methylphenyl)piperazinyl-1)propyl)amino)-3(2H)-pyridazinone], the Ki falls from 89.4 nM to 23.3 nM (3.8-fold).

Compared with `COc1ccccc1N1CCN(CCNc2ccnn(CCN(C)C)c2=O)CC1` [2-(2-Dimethylaminoethyl)-4-((2-(4-(2-methoxyphenyl)piperazinyl-1)ethyl)amino)-3(2H)-pyridazinone], `COc1ccccc1N1CCN(CCNc2cnn(CCN(C)C)c(=O)c2)CC1` [2-(2-Dimethylaminoethyl)-5-((2-(4-(2-methoxyphenyl)piperazinyl-1)ethyl)amino)-3(2H)-pyridazinone] is 1.9-fold lower in Ki: 437 nM for the first, 229 nM for the second.

`COc1ccccc1N1CCN(CCNc2c(Cl)cnn(CCN(C)C)c2=O)CC1` [2-(2-Dimethylaminoethyl)-5-chloro-4-((2-(4-(2-methoxyphenyl)piperazinyl-1)ethyl)amino)-3(2H)-pyridazinone] and `CCOc1ccccc1N1CCN(CCNc2ccnn(C)c2=O)CC1` [2-Methyl-4-((2-(4-(2-ethoxyphenyl)piperazinyl-1)ethyl)amino)-3(2H)-pyridazinone] are within 1.5-fold of each other in Ki: 15.8 nM for the first, 13.6 nM for the second.

`Cn1nccc(NCCN2CCN(c3ccccc3F)CC2)c1=O` [2-Methyl-4-((2-(4-(2-fluorophenyl)piperazinyl-1)ethyl)amino) -3(2H)-pyridazinone] and `COc1ccccc1N1CCN(CCNc2ccnn(C)c2=O)CC1` [2-Methyl-4-((2-(4-(2-methoxyphenyl)piperazinyl-1)ethyl)amino)-3(2H)-pyridazinone] are within 1.5-fold of each other in Ki: 21.4 nM for the first, 15.7 nM for the second.

Going from `CCOc1cc(C)ccc1N1CCN(CCCNc2ccnn(C)c2=O)CC1` [2-Methyl-4-((3-(4-(2-ethoxy-4-methylphenyl)piperazinyl-1)propyl)amino)-3(2H)-pyridazinone] to `Cn1nccc(NCCCN2CCN(c3ccccc3F)CC2)c1=O` [2-Methyl-4-((3-(4-(2-fluorophenyl)piperazinyl-1)propyl)amino)-3(2H)-pyridazinone], the Ki rises from 13.6 nM to 30.2 nM (2.2-fold).

Going from `Cc1ccc(N2CCN(CCCNc3ccnn(C)c3=O)CC2)c(O)c1` [2-Methyl-4-((3-(4-(2-hydroxy-4-methylphenyl)piperazinyl-1)propyl)amino)-3(2H)-pyridazinone] to `Cc1ccccc1N1CCN(CCCNc2cnn(C)c(=O)c2)CC1` [2-Methyl-4-((3-(4-(2-methylphenyl)piperazinyl-1)propyl)amino)-3(2H)-pyridazinone], the Ki rises from 20.9 nM to 49.3 nM (2.4-fold). The first binds more tightly here.

Compared with `COc1ccccc1N1CCN(CCCCNc2ccnn(C)c2=O)CC1` [2-Methyl-4-((4-(4-(2-methoxyphenyl)piperazinyl-1)butyl)amino)-3(2H)-pyridazinone], `Cn1ncc(NCCN2CCN(c3ccccc3OCc3ccccc3)CC2)c(Cl)c1=O` [2-Methyl-4-chloro-5-((2-(4-(2-benzyloxyphenyl)piperazinyl-1)ethyl)amino)-3(2H)-pyridazinone] is 5.9-fold lower in Ki: 11.8 nM for the first, 2 nM for the second.

First: Cn1ncc(NCCN2CCN(c3ccccc3O)CC2)c(Cl)c1=O [2-Methyl-4-chloro-5-((2-(4-(2-hydroxyphenyl)piperazinyl-1)ethyl)amino)-3(2H)-pyridazinone]
Second: Cc1ccccc1N1CCN(CCNc2cnn(C)c(=O)c2Cl)CC1 [2-Methyl-4-chloro-5-((2-(4-(2-methylphenyl)piperazinyl-1)ethyl)amino)-3(2H)-pyridazinone]
The Ki of the first is 2.5-fold higher: 15.4 nM for the first, 6.27 nM for the second. The second binds more tightly here.

Going from `CCOc1cc(C)ccc1N1CCN(CCCNc2cnn(C)c(=O)c2Cl)CC1` [2-Methyl-4-chloro-5-((3-(4-(2-ethoxy-4-methylphenyl)piperazinyl-1)propyl)yamino)-3(2H)-pyridazinone] to `Cn1ncc(NCCCN2CCN(c3ccccc3F)CC2)c(Cl)c1=O` [2-Methyl-4-chloro-5-((3-(4-(2-fluorophenyl)piperazinyl-1)propyl)amino)-3(2H)-pyridazinone], the Ki rises from 3.78 nM to 32.8 nM (8.7-fold).

Going from `Cc1ccc(N2CCN(CCCNc3cnn(C)c(=O)c3Cl)CC2)c(O)c1` [2-Methyl-4-chloro-5-((3-(4-(2-hydroxy-4-methylphenyl)piperazinyl-1)propyl)amino)-3(2H)-pyridazinone] to `Cc1ccccc1N1CCN(CCCNc2cnn(C)c(=O)c2Cl)CC1` [2-Methyl-4-chloro-5-((3-(4-(2-methylphenyl)piperazinyl-1)propyl)amino)-3(2H)-pyridazinone], the Ki rises from 4.33 nM to 31.4 nM (7.3-fold). The first binds more tightly here.

Going from `Cc1ccc(N2CCN(CCNc3cnn(C)c(=O)c3Cl)CC2)c(O)c1` [2-Methyl-4-chloro-5-((4-(2-hydroxy-4-methylphenyl)piperazinyl-1)ethyl)amino)-3(2H)-pyridazinone] to `COc1ccccc1N1CCN(CCCCNc2cnn(C)c(=O)c2Cl)CC1` [2-Methyl-4-chloro-5-((4-(4-(2-methoxyphenyl)-1-piperazinyl)butyl)amino)-3(2H)-pyridazinone], the Ki falls from 20.8 nM to 6.05 nM (3.4-fold). The second binds more tightly here.

Going from `CCN(CCN1CCN(c2ccccc2OC)CC1)c1cnn(C)c(=O)c1Cl` [2-Methyl-4-chloro-5-(ethyl-(2-(4-(2-methoxyphenyl)piperazinyl-1)ethyl)amino)-3(2H)-pyridazinone] to `COc1ccccc1N1CCN(CCCN(C)c2cnn(C)c(=O)c2Cl)CC1` [2-Methyl-4-chloro-5-(methyl-(3-(4-(2-methoxyphenyl)piperazinyl-1)propyl)amino)-3(2H)-pyridazinone], the Ki falls from 37.1 nM to 3.55 nM (10-fold). The second binds more tightly here.

First: CCOc1ccccc1N1CCN(CCNc2cnn(C)c(=O)c2)CC1 [2-Methyl-5-((2-(4-(2-ethoxyphenyl)piperazinyl-1)ethyl)amino)-3(2H)-pyridazinone]
Second: Cn1ncc(NCCN2CCN(c3ccccc3O)CC2)cc1=O [2-Methyl-5-((2-(4-(2-hydroxyphenyl)piperazinyl-1)ethyl)amino)-3(2H)-pyridazinone]
The Ki of the first is 1.6-fold higher: 103 nM for the first, 65.8 nM for the second. The second binds more tightly here.

Compared with `COc1ccccc1N1CCN(CCCCNc2cnn(C)c(=O)c2)CC1` [2-Methyl-5-((4-(4-(2-methoxyphenyl)piperazinyl-1)butyl)amino)-3(2H)-pyridazinone], `Cn1ncc(Cl)c(NCCN2CCN(c3ccccc3OCc3ccccc3)CC2)c1=O` [2-Methyl-5-chloro-4-((2-(4-(2-benzyloxyphenyl)piperazinyl-1)ethyl)amino)-3(2H)-pyridazinone] is 2.1-fold lower in Ki: 5.38 nM for the first, 2.54 nM for the second.

First: Cc1ccccc1N1CCN(CCNc2c(Cl)cnn(C)c2=O)CC1 [2-Methyl-5-chloro-4-((2-(4-(2-methylphenyl)piperazinyl-1)ethyl)amino)-3(2H)-pyridazinone]
Second: CCOc1cc(C)ccc1N1CCN(CCCNc2c(Cl)cnn(C)c2=O)CC1 [2-Methyl-5-chloro-4-((3-(4-(2-ethoxy-4-methylphenyl)piperazinyl-1)propyl)amino)-3(2H)-pyridazinone]
The Ki of the first is 4.1-fold lower: 1.21 nM for the first, 4.99 nM for the second. The first binds more tightly here.

`Cn1ncc(Cl)c(NCCCN2CCN(c3ccccc3F)CC2)c1=O` [2-Methyl-5-chloro-4-((3-(4-(2-fluorophenyl)piperazinyl-1)propyl)amino)-3(2H)-pyridazinone] and `Cc1ccc(N2CCN(CCCNc3c(Cl)cnn(C)c3=O)CC2)c(O)c1` [2-Methyl-5-chloro-4-((3-(4-(2-hydroxy-4-methylphenyl)piperazinyl-1)propyl)amino)-3(2H)-pyridazinone] are within 1.5-fold of each other in Ki: 4.89 nM for the first, 5.34 nM for the second.

For `COc1ccccc1N1CCN(CCCNc2ccnn(C)c2=O)CC1` [2-Methyl-4-((3-(4-(2-methoxyphenyl)piperazinyl-1)propyl)amino-3(2H)-pyridazinone], the Ki was 24.7 nM and 40.5 nM.
